# Assay results reported in patent US9051290B2, “Biaryl phosphodiesterase inhibitors” (LEO PHARMA A/S, priority 2010, dated 2015).
# Molecular target: Human recombinant PDE4 (Genbank accession no NM—006203) (Homo sapiens, UniProt Q08499)
# Test: PDE4 assay (SPA, cleavage of cAMP)
# Type: biochemical
# Settings: 1 hour incubation, test compound up to 10 μM, cAMP 1×10^−5M, read-out: PDE4 IC50 range
# Method: Human recombinant PDE4 (Genbank accession no NM_006203) was incubated for 1 hour with the test compound at concentrations up to 10 μM, with cAMP (1×10^−5M), and with a low amount (0.021 MBq) of radioactively labelled cAMP. At the end of the incubation, the cleavage of the substrate was evaluated by the binding of the AMP product to SPA beads, which generate chemoluminescence when bound to the radioactive tracer. The AMP product inhibited the binding of the radioactive tracer to the beads, and the luminescent signal was competed.
# The results were calculated as the molar concentrations resulting in 50% inhibition of the substrate cleavage compared to controls samples, and are expressed as a range of IC50 (M).
# The compounds of the present invention were tested in the PDE4 assay.
# Human recombinant PDE4 (Genbank accession no NM—006203), sequence (Q08499 1-673 isoform Q08499-2): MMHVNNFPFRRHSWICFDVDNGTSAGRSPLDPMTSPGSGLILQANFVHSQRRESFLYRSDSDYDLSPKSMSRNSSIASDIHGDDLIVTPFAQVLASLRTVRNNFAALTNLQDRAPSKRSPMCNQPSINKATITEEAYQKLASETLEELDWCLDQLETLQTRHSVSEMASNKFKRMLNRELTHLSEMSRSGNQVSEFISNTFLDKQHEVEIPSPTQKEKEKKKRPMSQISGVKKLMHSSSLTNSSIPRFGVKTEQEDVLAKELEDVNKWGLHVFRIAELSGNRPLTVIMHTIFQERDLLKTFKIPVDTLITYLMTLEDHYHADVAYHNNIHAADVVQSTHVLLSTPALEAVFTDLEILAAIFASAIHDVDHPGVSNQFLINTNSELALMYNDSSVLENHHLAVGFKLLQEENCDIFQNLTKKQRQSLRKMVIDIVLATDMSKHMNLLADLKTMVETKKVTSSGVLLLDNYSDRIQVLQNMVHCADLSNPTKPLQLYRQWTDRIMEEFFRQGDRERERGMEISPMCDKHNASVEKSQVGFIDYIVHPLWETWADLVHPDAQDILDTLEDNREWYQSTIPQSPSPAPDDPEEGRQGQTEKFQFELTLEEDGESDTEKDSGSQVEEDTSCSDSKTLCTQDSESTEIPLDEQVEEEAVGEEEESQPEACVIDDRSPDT
row,Structure (SMILES),IC50
1,"COc1ccc(-c2cccc3c2CCC3=O)c(OCc2cccc(S(=O)(=O)N(C)C)c2)c1OC [Compound 111, 3-[2,3-Dimethoxy-6-(1-oxo-indan-4-yl)-phenoxymethyl]-N,N-dimethyl-benzenesulfonamide]",< 100 nM
2,"COc1ccc(-c2cccc3c2COC3=O)c(OCC2(CO)COC2)c1OC [Compound 119, 4-[2-(3-Hydroxymethyl-oxetan-3-ylmethoxy)-3,4-dimethoxy-phenyl]-3H-isobenzofuran-1-one]",100 to 500 nM
3,"COc1ccc(-c2cccc3c2CCC3=O)c(OCC2(CO)COC2)c1OC [Compound 104, 4-[2-(3-Hydroxymethyl-oxetan-3-ylmethoxy)-3,4-dimethoxy-phenyl]-indan-1-one]",< 100 nM
4,"COc1ccc(-c2cccc3c2CCC3=O)c(OCC2(CNC(=O)C(C)C)COC2)c1OC [Compound 193, N-{3-[2,3-Dimethoxy-6-(1-oxo-indan-4-yl)-phenoxymethyl]-oxetan-3-ylmethyl}-isobutyramide]",< 100 nM
5,"COCC1(COc2c(-c3cccc4c3CCC4=O)ccc(OC)c2OC)COC1 [Compound 190, 4-[3,4-Dimethoxy-2-(3-methoxymethyl-oxetan-3-ylmethoxy)-phenyl]-indan-1-one]",< 100 nM
6,"COCC1(COc2c(-c3ccc4c(c3)COC4=O)ccc(OC)c2OC)COC1 [Compound 215, 5-[3,4-Dimethoxy-2-(3-methoxymethyl-oxetan-3-ylmethoxy)-phenyl]-3H-isobenzofuran-1-one]",< 100 nM
7,"COc1ccc(-c2cccc3c2CCC3=O)c(OCc2ccc(C(N)=O)cc2)c1OC [Compound 106, 4-[2,3-Dimethoxy-6-(1-oxo-indan-4-yl)-phenoxymethyl]-benzamide]",< 100 nM
8,"CNC(=O)c1ccc(COc2c(-c3ccc4c(c3)COC4=O)ccc(OC)c2OC)cc1 [Compound 138, 4-[2,3-Dimethoxy-6-(1-oxo-1,3-dihydro-isobenzofuran-5-yl)-phenoxymethyl]-N-methyl-benzamide]",< 100 nM
9,"COc1ccc(-c2cccc3c2CCC3=O)c(OCc2cccc(C(=O)N(C)C)c2)c1OC [Compound 110, 3-[2,3-Dimethoxy-6-(1-oxo-indan-4-yl)-phenoxymethyl]-N,N-dimethyl-benzamide]",< 100 nM
10,"COc1ccc(-c2ccc3c(c2)COC3=O)c(OCc2ccc(S(N)(=O)=O)cc2)c1OC [Compound 141, 4-[2,3-Dimethoxy-6-(1-oxo-1,3-dihydro-isobenzofuran-5-yl)-phenoxymethyl]-benzenesulfonamide]",< 100 nM
11,"COc1ccc(-c2ccc3c(c2)COC3=O)c(OCC(C)C)c1OC [Compound 170, 5-(2-Isobutoxy-3,4-dimethoxy-phenyl)-3H-isobenzofuran-1-one]",< 100 nM
12,"CCNC(=O)OCC(C)(C)COc1c(-c2ccc3c(c2)CNC3=O)ccc(OC)c1OC [Compound 212, Ethyl-carbamic acid 3-[2,3-dimethoxy-6-(1-oxo-2,3-dihydro-1H-isoindol-5-yl)-phenoxy]-2,2-dimethyl-propyl ester]",≥ 500 nM
13,"COc1ccc(-c2cccc3c2COC3=O)c(OCC(C)C)c1OC [Compound 175, 4-(2-Isobutoxy-3,4-dimethoxy-phenyl)-3H-isobenzofuran-1-one]",< 100 nM
14,"COc1ccc(-c2cccc3c2CCC3=O)c(OCC2(CNC(C)=O)COC2)c1OC [Compound 192, N-{3-[2,3-Dimethoxy-6-(1-oxo-indan-4-yl)-phenoxymethyl]-oxetan-3-ylmethyl}-acetamide]",< 100 nM
15,"COc1ccc(-c2ccc3c(c2)COC3=O)c(OCC(C)(C)CO)c1OC [Compound 137, 5-[2(3-Hydroxy-2,2-dimethyl-propoxy)-3,4-dimethoxy-phenyl]-3H-isobenzofuran-1-one]",< 100 nM
16,"COc1ccc(-c2ccc3c(c2)CN(C)C3=O)c(OCC(C)C)c1OC [Compound 172, 5-(2-Isobutoxy-3,4-dimethoxy-phenyl)-2-methyl-2,3-dihydro-isoindol-1-one]",≥ 500 nM
17,"COc1ccc(-c2ccc3c(c2)CNC3=O)c(OCc2cccc(C(N)=O)c2)c1OC [Compound 159, 3-[2,3-Dimethoxy-6-(1-oxo-2,3-dihydro-1H-isoindol-5-yl)-phenoxymethyl]-benzamide]",100 to 500 nM
18,"CCNC(=O)OCC(C)(C)COc1c(-c2ccc3c(c2)COC3=O)ccc(OC)c1OC [Compound 210, Ethyl-carbamic acid 3-[2,3-dimethoxy-6-(1-oxo-1,3-dihydro-isobenzofuran-5-yl)-phenoxy]-2,2-dimethyl-propyl Ester]",< 100 nM
19,"COc1ccc(-c2ccc3c(c2)CNC3=O)c(OCC2(CO)COC2)c1OC [Compound 151, 5-[2-(3-Hydroxymethyl-oxetan-3-ylmethoxy)-3,4-dimethoxy-phenyl]-2,3-dihydro-isoindol-1-one]",100 to 500 nM

row,Structure (SMILES),IC50
1,"COc1ccc(-c2ccc3c(c2)CCC3=O)c(OCc2ccc(S(C)(=O)=O)cc2)c1OC [Compound 130, 5-[2-(4-Methanesulfonyl-benzyloxy)-3,4-dimethoxy-phenyl]-indan-1-one]",< 100 nM
2,"CCCC(=O)NCC1(COc2c(-c3cccc4c3CCC4=O)ccc(OC)c2OC)COC1 [Compound 194, N-{3-[2,3-Dimethoxy-6-(1-oxo-indan-4-yl)-phenoxymethyl]-oxetan-3-ylmethyl}-butyramide]",< 100 nM
3,"COc1ccc(-c2cccc3c2CCC3=O)c(OCC(C)C)c1OC [Compound 166, 4-(2-Isobutoxy-3,4-dimethoxy-phenyl)-indan-1-one]",< 100 nM
4,"CCCNC(=O)C(C)(C)COc1c(-c2ccc3c(c2)CCC3=O)ccc(OC)c1OC [Compound 209, 3-[2,3-Dimethoxy-6-(1-oxo-indan-5-yl)-phenoxy]-2,2-dimethyl-N-propyl-propionamide]",100 to 500 nM
5,"COc1ccc(-c2ccc3c(c2)CNC3=O)c(OCc2ccc(C(=O)N(C)C)cc2)c1OC [Compound 156, 4-[2,3-Dimethoxy-6-(1-oxo-2,3-dihydro-1H-isoindol-5-yl)-phenoxymethyl]-N,N-dimethyl-benzamide]",< 100 nM
6,"COc1ccc(-c2cccc3c2CCC3=O)c(OCC2(COC(=O)NCc3ccccc3)CC2)c1OC [Compound 181, Benzyl-carbamic acid 1-[2,3-dimethoxy-6-(1-oxo-indan-4-yl)-phenoxymethyl]-cyclopropylmethyl ester]",< 100 nM
7,"CNC(=O)c1ccc(COc2c(-c3cccc4c3CCC4=O)ccc(OC)c2OC)cc1 [Compound 108, 4-[2,3-Dimethoxy-6-(1-oxo-indan-4-yl)-phenoxymethyl]-N-methyl-benzamide]",< 100 nM
8,"COc1ccc(-c2cccc3c2CCC3=O)c(OCc2cccc(S(C)(=O)=O)c2)c1OC [Compound 113, 4-[2-(3-Methanesulfonyl-benzyloxy)-3,4-dimethoxy-phenyl]-indan-1-one]",< 100 nM
9,"COCC(C)(C)COc1c(-c2ccc3c(c2)COC3=O)ccc(OC)c1OC [Compound 218, 5-[3,4-Dimethoxy-2-(3-methoxy-2,2-dimethyl-propoxy)-phenyl]-3H-isobenzofuran-1-one]",< 100 nM
10,"COc1ccc(-c2ccc3c(c2)COC3=O)c(OCc2cccc(S(=O)(=O)N(C)C)c2)c1OC [Compound 145, 3-[2,3-Dimethoxy-6-(1-oxo-1,3-dihydro-isobenzofuran-5-yl)-phenoxymethyl]-N,N-dimethyl-benzenesulfonamide]",< 100 nM
11,"CCNC(=O)C(C)(C)COc1c(-c2cccc3c2CCC3=O)ccc(OC)c1OC [Compound 201, 3-[2,3-Dimethoxy-6-(1-oxo-indan-4-yl)-phenoxy]-N-ethyl-2,2-dimethyl-propionamide]",< 100 nM
12,"COc1ccc(-c2ccc3c(c2)COC3=O)c(OCc2cccc(S(C)(=O)=O)c2)c1OC [Compound 143, 5-[2-(3-Methanesulfonyl-benzyloxy)-3,4-dimethoxy-phenyl]-3H-isobenzofuran-1-one]",< 100 nM
13,"COc1ccc(-c2cccc3c2CCC3=O)c(OCC(C)(C)CO)c1OC [Compound 107, 4-[2-(3-Hydroxy-2,2-dimethyl-propoxy)-3,4-dimethoxy-phenyl]-indan-1-one]",< 100 nM
14,"COc1ccc(-c2ccc3c(c2)CNC3=O)c(OCC(C)(C)CO)c1OC [Compound 154, 5-[2-(3-Hydroxy-2,2-dimethyl-propoxy)-3,4-dimethoxy-phenyl]-2,3-dihydro-isoindol-1-one]",< 100 nM
15,"COc1ccc(-c2cccc3c2CCC3=O)c(OCC2(CNC(=O)OC(C)C)CC2)c1OC [Compound 187, {1-[2,3-Dimethoxy-6-(1-oxo-indan-4-yl)-phenoxymethyl]-cyclopropylmethyl}-carbamic Acid Isopropyl Ester]",< 100 nM
16,"COc1ccc(-c2ccc3c(c2)CNC3=O)c(OCc2cccc(C(=O)N(C)C)c2)c1OC [Compound 157, 3-[2,3-Dimethoxy-6-(1-oxo-2,3-dihydro-1H-isoindol-5-yl)-phenoxymethyl]-N,N-dimethyl-benzamide]",< 100 nM
17,"COCCOC(=O)NCC1(COc2c(-c3cccc4c3CCC4=O)ccc(OC)c2OC)CC1 [Compound 188, {1-[2,3-Dimethoxy-6-(1-oxo-indan-4-yl)-phenoxymethyl]-cyclopropylmethyl}-carbamic acid 2-methoxy-ethyl Ester]",< 100 nM
18,"COc1ccc(-c2ccc3c(c2)CNC3=O)c(OCCC(C)C)c1OC [Compound 147, 5-[3,4-Dimethoxy-2-(3-methyl-butoxy)-phenyl]-2,3-dihydro-isoindol-1-one]",< 100 nM
19,"COc1ccc(-c2ccc3c(c2)COC3=O)c(OCc2cccc(S(N)(=O)=O)c2)c1OC [Compound 144, 3-[2,3-Dimethoxy-6-(1-oxo-1,3-dihydro-isobenzofuran-5-yl)-phenoxymethyl]-benzenesulfonamide]",< 100 nM
